Among the data in patent US12344610B2, “APOL1 inhibitors and methods of use” (Maze Therapeutics, Inc., priority 2022, dated 2025) are EC50 values, retold here.

Test [1] concerns HEK293 clonal cell line overexpressing APOL1 G1. Briefly: APOL1 G1 HEK293 cell rescue assay (Example B3). The following applies: geometric mean of at least 2 runs, † = single run, ¥ = concentration at 50% rescue estimated (no sigmoidal curve). The class given is cell-based. Here is the method: Compounds were also assayed in a HEK293 clonal cell line overexpressing APOL1 G1 by a method similar to that shown in Example B2 above.
Unless otherwise specified, EC50 values are reported as the geometric mean of at least 2 assay runs on separate days. Each run represents the average of a technical replicate, where each compound was assayed twice in the same plate. A superscript † symbol indicates a value from the average of a technical replicate from a single assay run, where each compound was assayed twice in the same plate. A ¥ symbol represents compound concentration at 50% rescue estimated due to lack of sigmoidal curve preventing curve fitting. Compounds in Table 41 are referred to by the corresponding Compound Number in Table 1, which is also referred to in the synthetic examples. When one or more of the numbered compounds are identified by stereochemistry (for example, (R)- or (S)-), the specific stereoisomer for which data is provided in Table 41 may be identified by the elution order of such compound as described in the synthetic examples. Absolute stereochemistry of such compounds may be identified by methods known in the art. For Table 41 below, n/a represents “not available”.
Rescue EC50 values reported in Table 41 below represent the half-maximal effective concentration for reversal of cell death caused by overexpression of APOL1.

Test [2] relates to HEK293 cells overexpressing APOL1 G2. In words: APOL1 G2 HEK293 cell rescue assay (reversal of cell death caused by overexpression of APOL1). The class given is cell-based. The following applies: geometric mean of at least 2 assay runs, † = single assay run. Here is the method: Unless otherwise specified, EC50 values are reported as the geometric mean of at least 2 assay runs on separate days. Each run represents the average of a technical replicate, where each compound was assayed twice in the same plate. A superscript t symbol indicates a value from the average of a technical replicate from a single assay run, where each compound was assayed twice in the same plate. Compounds in Table 40 are referred to by the corresponding Compound Number in Table 1, which is also referred to in the synthetic examples. When one or more of the numbered compounds are identified by stereochemistry (for example, (R)- or (S)-), the specific stereoisomer for which data is provided in Table 40 may be identified by the elution order of such compound as described in the synthetic examples. Absolute stereochemistry of such compounds may be identified by methods known in the art. For Table 40 below, n/a represents “not available”.
Rescue EC50 values reported in Table 40 below represent the half-maximal effective concentration for reversal of cell death caused by overexpression of APOL1.

The mark [3] stands for this setting: HEK293 clonal line overexpressing APOL1 G1.
Setting [4] is: Homo sapiens, HEK293, HEK293 clonal line overexpressing APOL1 G1.
The mark [5] stands for this setting: Homo sapiens, HEK293, HEK293 overexpressing APOL1 G2.

pEC50: −log10 of the molar value.

In the case of `CC(COc1ccc(S(C)(=O)=O)cc1)N1CCC2(CC1)C(=O)N(C1CC(O)C1)c1ccc(Cl)cc12` (single isomer, unassigned) [Compound 206, 5-chloro-1′-[(2S) or (2R)-1-(4-methanesulfonylphenoxy)propan-2-yl]-1-[(cis) or (trans)-3-hydroxycyclobutyl]-1,2-dihydrospiro[indole-3,4′-piperidin]-2-one], the values for the negative logarithm of the EC50 (pEC50) in test [1] (setting [3]) and in test [2] (HEK293 overexpressing APOL1 G2) were 5.37 and below 5.02, respectively.
The matching figures for `CC(COc1ccc(S(C)(=O)=O)cc1)N1CCC2(CC1)C(=O)N(C1CC(O)C1)c1ccc(Cl)cc12` (single isomer, unassigned) [Compound 207, 5-chloro-1′-[(2S) or (2R)-1-(4-methanesulfonylphenoxy)propan-2-yl]-1-[(trans) or (cis)-3-hydroxycyclobutyl]-1,2-dihydrospiro[indole-3,4′-piperidin]-2-one]: below 5.00 and below 5.00.
Turning to `O=C1CCc2cc(OCCN3CCC4(CC3)C(=O)Nc3ccc(C(F)F)cc34)cnc2N1C1CC(CO)C1` (single isomer, unassigned) [Compound 310, 5-(difluoromethyl)-1′-[2-({7-oxo-8-[(trans) or (cis)-3-(hydroxymethyl)cyclobutyl]-5,6,7,8-tetrahydro-1,8-naphthyridin-3-yl}oxy)ethyl]-1,2-dihydrospiro[indole-3,4′-piperidin]-2-one], the pEC50 in test [1] (setting [3]) is 6.57; in test [2] (HEK293 overexpressing APOL1 G2), 6.99.
The like results for `O=C1Nc2ccc(Cl)cc2C12CCN(CCOc1cnc(C(O)CO)nc1)CC2` (single isomer, unassigned) [Compound 378, 5-chloro-1′-[2-({2-[(1S or 1R)-1,2-dihydroxyethyl]pyrimidin-5-yl}oxy)ethyl]-1,2-dihydrospiro[indole-3,4′-piperidin]-2-one] were, in that order, around 6.00 and 6.41.
In the case of `O=C1Nc2ccc(Cl)cc2C12CCN(CCOc1cnc(C(O)CO)nc1)CC2` (single isomer, unassigned) [Compound 379, 5-chloro-1′-[2-({2-[(1R or 1S)-1,2-dihydroxyethyl]pyrimidin-5-yl}oxy)ethyl]-1,2-dihydrospiro[indole-3,4′-piperidin]-2-one], the negative-log EC50 (pEC50) was below 5.00 in test [1] (setting [3]) and 6.07 in test [2] (HEK293 overexpressing APOL1 G2).
The like results for `CC(CO)(c1ncc(OCCN2CCC3(CC2)C(=O)Nc2ccc(Cl)cc23)cc1C(F)(F)F)S(C)(=O)=O` (single isomer, unassigned) [Compound 403, 5-chloro-1′-[2-({6-[(2R or 2S)-1-hydroxy-2-methanesulfonylpropan-2-yl]-5-(trifluoromethyl)pyridin-3-yl}oxy)ethyl]-1,2-dihydrospiro[indole-3,4′-piperidin]-2-one] were, in that order, 6.84 and 7.02.
Regarding `CN1C(=O)C2(CCN(CCOc3ccc(C4(S(C)(=O)=O)CC(O)C4)cc3)CC2)c2cc(C(F)F)ccc21` (stereo not shown) [Compound 277, 5-(difluoromethyl)-1′-{2-[4-(3-hydroxy-1-methanesulfonylcyclobutyl)phenoxy]ethyl}-1-methyl-1,2-dihydrospiro[indole-3,4′-piperidin]-2-one], the negative logarithm of the EC50 (pEC50) in test [1] (setting [4]) was 6.93; in test [2] (setting [5]) it was 7.47.
On to `CS(=O)(=O)C1(c2ccc(OCCN3CCC4(CC3)C(=O)Nc3ccc(C(F)F)cc34)cc2)CC(O)C1` (stereo not shown) [Compound 280, 5-(difluoromethyl)-1′-{2-[4-(3-hydroxy-1-methanesulfonylcyclobutyl)phenoxy]ethyl}-1,2-dihydrospiro[indole-3,4′-piperidin]-2-one], for which the pEC50 is 6.63 in test [1] (setting [4]) and 7.10 in test [2] (setting [5]).
In the case of `O=C1CCc2cc(OCCN3CCC4(CC3)C(=O)Nc3ccc(Cl)cc34)cnc2N1` [Compound 293, 5-chloro-1′-{2-[(7-oxo-5,6,7,8-tetrahydro-1,8-naphthyridin-3-yl)oxy]ethyl}-1,2-dihydrospiro[indole-3,4′-piperidin]-2-one], the pEC50 in test [1] (setting [4]) is 6.71; in test [2] (setting [5]), 6.53.
As to `CC(O)c1ncc(OCCN2CCC3(CC2)C(=O)Nc2ccc(C(F)F)cc23)cc1C(F)(F)F` (stereo not shown) [Compound 296, 5-(difluoromethyl)-1′-(2-{[6-(1-hydroxyethyl)-5-(trifluoromethyl)pyridin-3-yl]oxy}ethyl)-1,2-dihydrospiro[indole-3,4′-piperidin]-2-one], the negative-log EC50 (pEC50) in test [1] (setting [4]) is 6.80; in test [2] (setting [5]) it was 7.11.
On to `O=C1CCc2cc(OCCN3CCC4(CC3)C(=O)Nc3ccc(Cl)cc34)cnc2N1C1CC(O)(C2CC2)C1` (stereo not shown) [Compound 299, 5-chloro-1′-(2-{[8-(3-cyclopropyl-3-hydroxycyclobutyl)-7-oxo-5,6,7,8-tetrahydro-1,8-naphthyridin-3-yl]oxy}ethyl)-1,2-dihydrospiro[indole-3,4′-piperidin]-2-one], for which the negative-log EC50 (pEC50) in test [1] (setting [4]) is 7.20; in test [2] (setting [5]), 7.67.
For the compound `CCC1(O)CC(N2C(=O)CCc3cc(OCCN4CCC5(CC4)C(=O)Nc4ccc(Cl)cc45)cnc32)C1` (stereo not shown) [Compound 318], the pEC50 in test [1] (setting [4]) is 7.18; in test [2] (setting [5]), 7.63.
The matching figures for `O=C1Nc2ccc(Cl)cc2C12CCN(CCOc1cnc(C(O)CO)nc1)CC2` (stereo not shown) [Compound 330, 5-chloro-1′-(2-{[2-(1,2-dihydroxyethyl)pyrimidin-5-yl]oxy}ethyl)-1,2-dihydrospiro[indole-3,4′-piperidin]-2-one]: around 5.82 and 6.18.
`N#Cc1ccc2c(c1)C1(CCN(CCOc3cnc(CCO)nc3)CC1)C(=O)N2` [Compound 332, 1′-(2-{[2-(2-hydroxyethyl)pyrimidin-5-yl]oxy}ethyl)-2-oxo-1,2-dihydrospiro[indole-3,4′-piperidine]-5-carbonitrile]: the pEC50 in test [1] (setting [4]) is around 5.00.
Consider `CC(O)c1ncc(OCCN2CCC3(CC2)C(=O)Nc2ccc(C#N)cc23)cc1C(F)(F)F` (stereo not shown) [Compound 338, 1′-(2-{[6-(1-hydroxyethyl)-5-(trifluoromethyl)pyridin-3-yl]oxy}ethyl)-2-oxo-1,2-dihydrospiro[indole-3,4′-piperidine]-5-carbonitrile], for which the figures for the negative-log EC50 (pEC50) in test [1] (setting [4]) and in test [2] (setting [5]) were 6.67 and 7.00, respectively.
On to `C[C@]1(O)C[C@@H](n2c(=O)cc(C(F)F)c3cc(OCCN4CCC5(CC4)C(=O)Nc4ccc(Cl)cc45)cnc32)C1` [Compound 339, 5-chloro-1′-(2-{[5-(difluoromethyl)-7-oxo-8-[(cis)-3-hydroxy-3-methylcyclobutyl]-7,8-dihydro-1,8-naphthyridin-3-yl]oxy}ethyl)-1,2-dihydrospiro[indole-3,4′-piperidin]-2-one], for which the negative logarithm of the EC50 (pEC50) in test [2] (setting [5]) was 7.44.
Still for that read-out and setting: for `C[C@]1(O)C[C@@H](n2c(=O)cc(C(F)F)c3cc(OCCN4CCC5(CC4)C(=O)Nc4ccc(C(F)F)cc45)cnc32)C1` [Compound 340, 5-(difluoromethyl)-1′-(2-{[5-(difluoromethyl)-7-oxo-8-[(cis)-3-hydroxy-3-methylcyclobutyl]-7,8-dihydro-1,8-naphthyridin-3-yl]oxy}ethyl)-1,2-dihydrospiro[indole-3,4′-piperidin]-2-one] the value was 7.52.
In the case of `CP(C)(=O)C1(c2ncc(OCCN3CCC4(CC3)C(=O)Nc3ccc(Cl)cc34)cn2)CC1` [Compound 344, 5-chloro-1′-[2-({2-[1-(dimethylphosphoryl)cyclopropyl]pyrimidin-5-yl}oxy)ethyl]-1,2-dihydrospiro[indole-3,4′-piperidin]-2-one], the negative logarithm of the EC50 (pEC50) in test [1] (setting [4]) is 6.60; in test [2] (setting [5]) it was 6.71.
The like results for `C[C@]1(O)C[C@@H](n2cnc3cc(OCCN4CCC5(CC4)C(=O)Nc4ccc(Cl)cc45)ccc32)C1` [Compound 351, 5-chloro-1′-[2-({1-[(cis)-3-hydroxy-3-methylcyclobutyl]-1H-1,3-benzodiazol-5-yl}oxy)ethyl]-1,2-dihydrospiro[indole-3,4′-piperidin]-2-one] were, in that order, 6.52 and 6.78.
The matching figures for `C[C@]1(O)C[C@@H](N2C(=O)CCc3cc(OCCN4CCC5(CC4)C(=O)Nc4ccc(Cl)cc45)cc(C(F)(F)F)c32)C1` [Compound 353, 5-chloro-1′-[2-({2-oxo-1-[(cis)-3-hydroxy-3-methylcyclobutyl]-8-(trifluoromethyl)-1,2,3,4-tetrahydroquinolin-6-yl}oxy)ethyl]-1,2-dihydrospiro[indole-3,4′-piperidin]-2-one]: 7.46 and 7.91.
